# Test results reported in PMC10465125 (eLife, 2023).
# “Also recorded” adds a separate entry of the source.
# How the values were obtained:
# [1] = test system: SARS-CoV-2 spike Vpps of different variants (alpha, beta, gamma, delta, omicron); format: cell-based
# SARS-CoV-2 omicron virus = test: microbe, parasite or virus in culture; format: cell-based
Compound,"suppression of entry of Vpp of beta, delta and omicron variant [1]","suppression of infection by Vpp of wild type, alpha variant, gamma variant [1]","EC50 (SARS-CoV-2 omicron virus; Severe acute respiratory syndrome coronavirus 2, Vero C1008, read-out: EC50 against omicron variant virus production)","block of alpha, beta, gamma, delta, and omicron variants Vpp infection as well as wild-type Vpps [1]",EC50 against omicron variant virus production (SARS-CoV-2 omicron virus)
"O=C1O[C@H]2[C@@H]3OC(=O)c4cc(O)c(O)c(O)c4-c4c(O)c(O)c5oc(=O)c6c(c(O)c(O)c7oc(=O)c4c5c76)-c4c(cc(O)c(O)c4O)C(=O)OC[C@H]3OC(O)[C@@H]2OC(=O)c2cc(O)c(O)c(O)c2-c2c1cc(O)c(O)c2O (mixture of isomers) [Punicalagin, punicalagin]",less potency and not,significant suppression; also recorded: potent inhibitor,2.88 µg/mL,,
tannic acid [reference compound],,significant suppression,,could block,5.27 µg/mL
